Laboratory results reported in publication PMC6269938, “Natural Aristolactams and Aporphine Alkaloids as Inhibitors of CDK1/Cyclin B and DYRK1A” (Molecules, 2013).
“Also recorded” adds a separate entry of the source. Where two headings read alike, the source gives them in different places.

How the values were obtained:
DYRK1A = DYRK1A (Rattus norvegicus, UniProt Q63470); assay: DYRK1A kinase inhibition assay; format: biochemical; details: for DYRK1A inhibition at 30 µM, in words: concentration of 30 µM; for IC50 / DYRK1A (IC50 in μM): mean of triplicates, variation max 20%, ATP 15 µM, 30 °C
Description: (§1) Values were background subtracted, and activities were calculated as pmoles of phosphate incorporated during a 10 min incubation. […] Controls were performed with appropriate dilutions of DMSO.
DYRK1A (rat, recombinant, expressed in E. coli as a GST fusion protein) was purified by affinity chromatography on glutathione-agarose and assayed as described.

CDK1/Cyclin B = CDK1/Cyclin B kinase inhibition assay; format: biochemical, starfish (Marthasterias glacialis)
Description: as §1
CDK1/Cyclin B was extracted in homogenisation buffer from M phase starfish (Marthasterias glacialis) oocytes and purified by affinity chromatography on p9^CKShs1-Sepharose beads, from which it was eluted with free p9^CKShs1 as previously described. […] After a 10 min incubation at 30 °C, 25 µL aliquots of supernatant were spotted onto P81 phosphocellulose paper and treated as described above.

CDK2 = test system: CDK2; set-up: method as in PMID 20097074, PMID 20097066; details: previous studies; cited from earlier work
CDK4 = test system: CDK4; set-up: method as in PMID 20097074, PMID 20097066; details: previous studies; cited from earlier work
Aurora 2 kinase = target: Aurora 2 kinase; set-up: method as in PMID 20097074, PMID 20097066; details: previous studies; cited from earlier work
cancer cell = test system: cancer cell; set-up: method as in PMID 19801998; details: cited from earlier work
[1] = test system: polo-box domain of Polo-like kinase 1; set-up: method as in PMID 19801998; details: cited from earlier work
human lung cancer cells = test system: human lung cancer cells; set-up: method as in PMID 15473647; details: concentration of 20 μM; cited from earlier work
human colon cancer cells = test system: human colon cancer cells; set-up: method as in doi:10.1016/j.procbio.2012.05.018; details: cited from earlier work
[2] = mean of triplicates, variation max 20%, ATP 15 µM, histone H1, 30 °C

Row | SMILES | DYRK1A inhibition at 30 µM, in words (DYRK1A) | IC50 (DYRK1A) | CDK1/Cyclin B inhibition at 30 µM, in words (CDK1/Cyclin B; concentration of 30 µM) | IC50 (CDK1/Cyclin B; [2]) | other results
1 | COc1cc2c3c(c1O)-c1c(ccc(OC)c1OC)CC3N(C)CC2 (single isomer, unassigned; (+)) [Compound 6, (+)-corydine] | inactive | > 30 µM | inactive | > 30 µM | 
2 | COc1ccc2c(c1O)-c1c3c(cc4c1C(C2)N(C)CC4)OCO3 (single isomer, unassigned; (+)) [Compound 9, (+)-bulbocapnine] | inactive | > 30 µM | inactive | > 30 µM | 
3 | COc1ccc2c(c1O)-c1c(OC)c(O)cc3c1C(C2)N(C)CC3 (single isomer, unassigned; (+)) [Compound 10, (+)-N-methyllindcarpine] | inactive | > 30 µM | inactive | > 30 µM | 
4 | COc1cc2c(cc1O)CC1NCCc3cc4c(c-2c31)OCO4 (single isomer, unassigned; (+)) [Compound 11, (+)-actinodaphnine] | inactive | > 30 µM | inactive | > 30 µM | 
5 | COc1c2c(cc3c1-c1c4c(cc5c1C(C3)NCC5)OCO4)OCO2 (single isomer, unassigned; (+)) [Compound 12, (+)-11-methoxynorneolistine] |  |  |  |  | CDK1/Cyclin B inhibition at 30 µM, in words (CDK1/Cyclin B): did not inhibit; also recorded: unable to inhibit; IC50 (CDK1/Cyclin B): > 30 µM
6 | COc1cc2c3c(c1OC)-c1ccccc1CC3NCC2 (single isomer, unassigned; (+)) [Compound 15, (+)-N-nornuciferine] |  | 4.2 µM | unable to inhibit | > 30 µM | CDK1/Cyclin B inhibition at 30 µM, in words (CDK1/Cyclin B; concentration of 30 µM, listed as N-nornuciferine (15)): did not inhibit
7 | COc1cc2c(cc1O)CC1c3c(cc(O)c(OC)c3-2)CCN1C (single isomer, unassigned; (+)) [Compound 16, (+)-boldine] | inactive | > 30 µM | inactive | > 30 µM | 
8 | COc1cc([C@H]2OC[C@@H]3C(c4cc(OC)c(O)c(OC)c4)OC[C@H]23)ccc1O (single isomer, unassigned; (-)) [Compound 5, (−)-medioresinol] |  | 0.1 µM |  | 1.3 µM | DYRK1A (IC50 in μM) (DYRK1A): submicromolar
9 | CN1CCc2cc3c(c4c2C1Cc1ccccc1-4)OCO3 (single isomer, unassigned; (-)) [Compound 7, (−)-roemerine] | inactive | 15 µM | unable to inhibit; also recorded: inactive | > 30 µM | 
10 | COc1c2c3c(c(OC)c1OC)-c1ccccc1CC3NCC2 (single isomer, unassigned; (-)) [Compound 14, (−)-O-methylisopiline] | inactive | > 30 µM | inactive | > 30 µM | 
11 | COc1c(O)cc2c3c(cc4ccccc4c13)NC2=O [Compound 1, aristolactam AII] |  |  | inactive | > 30 µM | 
12 | COc1cc2c3c(cc4c(O)cccc4c3c1OC)NC2=O [Compound 3, velutinam] |  | 0.6 µM |  | 1.5 µM | DYRK1A (IC50 in μM) (DYRK1A): submicromolar
13 | COc1c(O)cc2c3c(cc4ccc(O)cc4c13)NC2=O [Compound 4, aristolactam AIIIA] |  | 0.08 µM |  | 0.2 µM | DYRK1A (IC50 in μM) (DYRK1A): submicromolar; IC50 (CDK2): 0.14 µM; IC50 (CDK4): 1.42 µM; IC50 (Aurora 2 kinase): 2.14 µM; cancer cell proliferation, mitotic arrest at G2/M phase, apoptosis (cancer cell): could inhibit cancer cell proliferation; ligand targeting the polo-box domain of Polo-like kinase 1 [1]: new ligand
14 | O=C1c2ccccc2-c2c3c(cc4ccnc1c24)OCO3 [Compound 8, liriodenine] |  | 3.1 µM | unable to inhibit | > 30 µM | CDK1/Cyclin B inhibition at 30 µM, in words (CDK1/Cyclin B; concentration of 30 µM, listed as Liriodenine (8)): did not inhibit; apoptosis induction by inhibiting CDK1/Cyclin B kinase activity, G2/M cell cycle arrest (human lung cancer cells): induced apoptosis; growth of human colon cancer cells, G1/S cell cycle arrest (human colon cancer cells): inhibited the growth
15 | COc1cc2ccnc3c2c(c1OC)-c1ccccc1C3=O [Compound 13, lysicamine] |  | 2.4 µM | unable to inhibit | > 30 µM | CDK1/Cyclin B inhibition at 30 µM, in words (CDK1/Cyclin B; concentration of 30 µM, listed as lysicamine (13)): did not inhibit
